Experimental data from ChEMBL document CHEMBL1201862, “PubChem BioAssay data set” (2004).
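Results reflect a 48-hour exposure of cells in 96-well plates to compound at five concentrations. At the GI50, growth is halved.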 Activity calls are given as the source filed them. No stated cut-off is given here; in the data, active = GI50 up to about 1.1 µM and inactive = higher.

Assays:
Experiment in all cases: NCI anticancer screen, dose series, 48 h
[1] = system: MDA-MB-435
[2] = system: KM12
[3] = system: PC-3
[4] = system: SK-MEL-28
[5] = system: HCT-15
[6] = system: OVCAR-4
[7] = system: NCI-H226
[8] = system: M14
[9] = system: LOX IMVI
[10] = system: MOLT-4
[11] = system: OVCAR-5
[12] = system: NCI-H23
[13] = system: U-251
[14] = system: NCI/ADR-RES
[15] = system: HCT-116
[16] = system: T47D
[17] = system: A498
[18] = system: RPMI-8226
[19] = system: Malme-3M
[20] = system: EKVX

Row | SMILES | GI50 [1] | GI50 [2] | GI50 [3] | GI50 [4] | GI50 [5] [µM] | GI50 [6] | GI50 [7] | GI50 [8] | GI50 [9] | GI50 [10] | GI50 [11] | GI50 [12] | GI50 [13] | GI50 [14] | GI50 [15] | GI50 [16] | GI50 [17] | GI50 [18] | GI50 [19] | GI50 [20]
1 | CCN(CC)c1ccc2cc(C(N)=O)c(=N)oc2c1 | 30.9 µM (inactive) | 31 µM (inactive) | 26.3 µM (inactive) | 31.3 µM (inactive) | 35 | 23.6 µM (inactive) | 19.7 µM (inactive) | 34.4 µM (inactive) | 29.5 µM (inactive) | 69.2 µM (inactive) | 51.5 µM (inactive) | 42.8 µM (inactive) | 98.6 µM (inactive) | 53.1 µM (inactive) | 35.1 µM (inactive) | 23.7 µM (inactive) | 38.2 µM (inactive) | 96.6 µM (inactive) |  | 
2 | O=C1CC2(CCN(Cc3ccccc3)CC2)C(=O)N1N1CCCCC1 | > 100 µM (inactive) | > 100 µM (inactive) | > 100 µM (inactive) | > 100 µM (inactive) | > 100 |  | > 100 µM (inactive) | > 100 µM (inactive) | > 100 µM (inactive) | > 100 µM (inactive) | > 100 µM (inactive) | > 100 µM (inactive) | > 100 µM (inactive) | > 100 µM (inactive) | > 100 µM (inactive) | > 100 µM (inactive) | > 100 µM (inactive) | > 100 µM (inactive) | > 100 µM (inactive) | 
3 | C/C(CC1SCCCS1)=C(/C)CC1SCCCS1 | > 100 µM (inactive) | > 100 µM (inactive) | > 100 µM (inactive) | > 100 µM (inactive) | > 100 | > 100 µM (inactive) | > 100 µM (inactive) | > 100 µM (inactive) | > 100 µM (inactive) | > 100 µM (inactive) | > 100 µM (inactive) | > 100 µM (inactive) |  | > 100 µM (inactive) | > 100 µM (inactive) | > 100 µM (inactive) | > 100 µM (inactive) | > 100 µM (inactive) | > 100 µM (inactive) | > 100 µM (inactive)
4 | O=C(/C=C\c1ccc(Cl)cc1Cl)c1cccs1 | 16.6 µM (inactive) | 16.3 µM (inactive) | 16.4 µM (inactive) | 24.5 µM (inactive) | 14.4 |  | 20.7 µM (inactive) | 18.8 µM (inactive) | > 10 µM (inactive) | 30.2 µM (inactive) | 20 µM (inactive) | 19.2 µM (inactive) |  | 30.4 µM (inactive) | 9.57 µM (inactive) | 21.9 µM (inactive) | 19.7 µM (inactive) | 3.61 µM (inactive) | 21.4 µM (inactive) | 16.9 µM (inactive)
5 | C#C[C@]1(O)CC[C@H]2[C@@H]3CCC4=C/C(=N/CCOC(=O)c5cccc6c(=O)c7ccccc7[nH]c56)CC[C@@H]4[C@H]3CC[C@@]21C | 31.8 µM (inactive) | 30.6 µM (inactive) | 18.4 µM (inactive) | 47.6 µM (inactive) | 45 | 32.7 µM (inactive) | 76.2 µM (inactive) | 41.7 µM (inactive) | 28.3 µM (inactive) | 25.9 µM (inactive) | > 100 µM (inactive) | 32.7 µM (inactive) | 16.4 µM (inactive) | 40.9 µM (inactive) | 42.9 µM (inactive) | 20.5 µM (inactive) | 58.6 µM (inactive) |  | 34.6 µM (inactive) | 46.3 µM (inactive)
6 | CC1CC(=O)Nc2nc3ccccc3n21 (centres undefined) | > 100 µM (inactive) | > 100 µM (inactive) | > 100 µM (inactive) |  | > 100 | > 100 µM (inactive) | > 100 µM (inactive) | > 100 µM (inactive) | > 100 µM (inactive) | > 100 µM (inactive) | > 100 µM (inactive) | > 100 µM (inactive) | > 100 µM (inactive) | > 100 µM (inactive) | > 100 µM (inactive) | > 100 µM (inactive) | > 100 µM (inactive) | > 100 µM (inactive) | > 100 µM (inactive) | 0.953 µM (active)
7 | CCC(N)(C(=O)O)C(C)C (centres undefined) | > 100 µM (inactive) | > 100 µM (inactive) | > 100 µM (inactive) | > 100 µM (inactive) | > 100 | > 100 µM (inactive) | > 100 µM (inactive) | > 100 µM (inactive) | > 100 µM (inactive) |  | > 100 µM (inactive) | > 100 µM (inactive) | > 100 µM (inactive) | > 100 µM (inactive) | > 100 µM (inactive) | > 100 µM (inactive) | > 100 µM (inactive) | > 100 µM (inactive) | > 100 µM (inactive) | > 100 µM (inactive)
8 | COc1ccc2c(c1)CC1COc3cc(OC)ccc3C1O2 (centres undefined) | > 100 µM (inactive) | > 100 µM (inactive) | 79.8 µM (inactive) |  | > 100 |  | 23 µM (inactive) | > 100 µM (inactive) | > 100 µM (inactive) | > 100 µM (inactive) | > 100 µM (inactive) | > 100 µM (inactive) | 36.6 µM (inactive) | 72.6 µM (inactive) | > 100 µM (inactive) | > 100 µM (inactive) | > 100 µM (inactive) | > 100 µM (inactive) | > 100 µM (inactive) | > 100 µM (inactive)
9 | COc1ccc(C(=O)Cn2c(C(=O)/C=C/c3ccco3)nc3ccccc32)cc1 | 24.4 µM (inactive) | 28.3 µM (inactive) | 36.3 µM (inactive) | 42.2 µM (inactive) | 33.3 | 37.1 µM (inactive) | 50.9 µM (inactive) | 36.6 µM (inactive) | 25.8 µM (inactive) | 15.8 µM (inactive) | > 100 µM (inactive) | 42.4 µM (inactive) | 32.7 µM (inactive) | 25.9 µM (inactive) | 29.3 µM (inactive) | 66.7 µM (inactive) | 35.5 µM (inactive) | 19.3 µM (inactive) | 35.2 µM (inactive) | 
10 | CC(=S)NC=C(C(N)=O)C(N)=O | > 100 µM (inactive) | > 100 µM (inactive) | > 100 µM (inactive) | > 100 µM (inactive) | > 100 |  | > 100 µM (inactive) | > 100 µM (inactive) | > 100 µM (inactive) | > 100 µM (inactive) | > 100 µM (inactive) | > 100 µM (inactive) | > 100 µM (inactive) | > 100 µM (inactive) | > 100 µM (inactive) | > 100 µM (inactive) | > 100 µM (inactive) | > 100 µM (inactive) | > 100 µM (inactive) | > 100 µM (inactive)
11 | O=S1(=O)N=C(NCc2c[nH]c3ccccc23)N(c2ccccc2)c2ccncc21 | > 100 µM (inactive) | > 100 µM (inactive) | > 100 µM (inactive) | > 100 µM (inactive) | > 100 | > 100 µM (inactive) | 60.3 µM (inactive) | > 100 µM (inactive) | > 100 µM (inactive) | > 100 µM (inactive) | > 100 µM (inactive) | > 100 µM (inactive) | 49.4 µM (inactive) | > 100 µM (inactive) | > 100 µM (inactive) | > 100 µM (inactive) | > 100 µM (inactive) |  | > 100 µM (inactive) | 64.9 µM (inactive)
12 | Cc1[nH]c(=O)[nH]c(=S)c1C(=O)NC(C)(CO)CO | > 100 µM (inactive) | > 100 µM (inactive) | > 100 µM (inactive) | > 100 µM (inactive) | > 100 | > 100 µM (inactive) | > 100 µM (inactive) | > 100 µM (inactive) | > 100 µM (inactive) | > 100 µM (inactive) | > 100 µM (inactive) | > 100 µM (inactive) | > 100 µM (inactive) | > 100 µM (inactive) | > 100 µM (inactive) | > 100 µM (inactive) | > 100 µM (inactive) |  | > 100 µM (inactive) | > 100 µM (inactive)
13 | COc1cc(OC)cc(-c2nc3cc(F)ccc3s2)c1 | > 100 µM (inactive) | > 100 µM (inactive) | 39.5 µM (inactive) |  | 55.1 | > 100 µM (inactive) | 13.7 µM (inactive) | 37.3 µM (inactive) | 53.8 µM (inactive) |  | 24.9 µM (inactive) | 12.9 µM (inactive) | 15.1 µM (inactive) | > 100 µM (inactive) | 13.6 µM (inactive) | 10.5 µM (inactive) | 19.1 µM (inactive) | > 100 µM (inactive) | 55 µM (inactive) | 12.1 µM (inactive)
14 | N#C[BH2-][n+]1cn(C2CC(OP(=O)(O)OCC3OC(n4cnc5c(N)ncnc54)CC3O)C(CO)O2)c2nc(N)[nH]c(=O)c21 (centres undefined) | > 100 µM (inactive) | > 100 µM (inactive) | > 100 µM (inactive) | > 100 µM (inactive) | > 100 | > 100 µM (inactive) | > 100 µM (inactive) |  | > 100 µM (inactive) | > 100 µM (inactive) | > 100 µM (inactive) | > 100 µM (inactive) | > 100 µM (inactive) | > 100 µM (inactive) | > 100 µM (inactive) | > 100 µM (inactive) | > 100 µM (inactive) | > 100 µM (inactive) | > 100 µM (inactive) | > 100 µM (inactive)
15 | CC(=O)Nc1ccc(-c2nc3ccccc3s2)cc1O | 37.8 µM (inactive) | 17.2 µM (inactive) | 51.2 µM (inactive) | 80.5 µM (inactive) | 41.2 | 92.3 µM (inactive) | 16.9 µM (inactive) | 59.2 µM (inactive) | 41.3 µM (inactive) | 14.6 µM (inactive) | 23 µM (inactive) | 24.5 µM (inactive) | 37.4 µM (inactive) | 17.1 µM (inactive) | 56.1 µM (inactive) | 36.1 µM (inactive) | 69.7 µM (inactive) | 21 µM (inactive) |  | 
